From US10080366B2, “Agent for increasing sugar content in fruit” (RIKEN, priority 2012, dated 2018)
Several values for one entry are separate records, joined by “and”; a condition that tells them apart may be missing. Identical values can stand only once. Like-named read-outs stand apart in the source and are kept apart here.

Experiments:
[1] = test system: grapes (varieties: Chardonnay, Pinot noir, Merlot, and Cabernet Sauvignon); settings: for sugar content in fruit compared with untreated: 3000 L/ha, entire vines, repeated, all four varieties
Description: To the entire vines including leaves and stems of grapes (varieties: Chardonnay, Pinot noir, Merlot, and Cabernet Sauvignon, 7 years old) in a farm field, an agent (containing Sorbon T-20 as a spreader/sticker at a concentration of 200 μL/L) for increasing a sugar content in a fruit diluted with water to have a potassium hydrogen carbonate concentration of 5 g/L or 10 g/L was applied in a sufficient amount (3000 L/ha (in this case, the amount of potassium hydrogen carbonate was 15 kg/ha for the 5 g/L sample or 30 kg/ha for the 10 g/L sample) each time. The application was repeatedly conducted at intervals of approximately 2 weeks or approximately 1 week as shown in FIGS. 1 to 4. The sugar concentration in the fruit was measured over time. As a control, unapplied vines were provided. The sampling was started before the first application, and a sample was collected before each application, and measured for the sugar content. Three vines were used for each treated group. Note that the expected harvest dates were September 20 for Chardonnay, October 10 for Merlot, October 20 for Cabernet Sauvignon, and September 30 for Pinot noir.
For the measurement of the sugar content, three clusters were taken from each of the treated vines on each of the dates of measurement, and the juice was squeezed and measured for the Brix sugar content (%) with a refractometer for sugar content (manufactured by Atago Co., Ltd.). Likewise, the acidity (%) was also measured with an acidity meter (manufactured by Atago Co., Ltd.).

[2] = test system: fruit of trellised grape (variety: Pinot noir)
Description: To fruit of trellised grape (variety: Pinot noir), an aqueous potassium hydrogen carbonate solution (20 g/L) was applied three times at intervals of one week. The fruit was harvested 21 days after the first application, and the sugar content, acidity, and amino acid concentration were measured. In addition, the harvested fruit was kept in an air-conditioned greenhouse (25° C.) for 10 days, and the drying state of the fruit was observed.

fruits of cherry tomato = test system: fruits of cherry tomato
Description: (§1) An agent for increasing a sugar content in a fruit (containing Sorbon T-20 as a spreader/sticker at a final concentration of 200 μL/L) diluted with water to have a potassium hydrogen carbonate concentration of 10 g/L was prepared. The masses of fruits of apple and cherry tomato purchased on the market were measured. Then, the prepared agent for increasing a sugar content in a fruit was applied by spraying to the fruits. The fruits were allowed to stand still in an air-conditioned greenhouse, and the masses of the apples and cherry tomatoes were measured on the date of application (date of application: Nov. 30, 2011; date of test: Dec. 5, 2011). In addition, as a control, the masses of untreated apples and cherry tomatoes were measured in the same manner.
(§2) The estimated transpiration ratio (%) was calculated by “the estimated amount (g) of transpiration/the mass (g) before application×100.”
(§3) The transpiration ratio was calculated by “the estimated transpiration ratio of the target sample (treated by application of potassium hydrogen carbonate or untreated)/the estimated transpiration ratio of the untreated sample.”

fruits of apple = test system: fruits of apple
Description: as §1, §2, §3

[3] = test system: fruit of grape (variety: Steuben); settings: 10 g/L
Description: An agent for increasing a sugar content in a fruit (containing Sorbon T-20 as a spreader/sticker at a final concentration of 200 μL/L) diluted with water to contain potassium hydrogen carbonate at 10 g/L was prepared. The mass of fruit of grape (variety: Steuben) purchased on the market was measured. Then, the prepared agent for increasing a sugar content in a fruit was applied by spraying to the fruit of grape. The fruit of grape was allowed to stand in an air-conditioned greenhouse (temperature: 25° C.), and the mass was measured over time (date of application: Feb. 7, 2011). In addition, as a control, the mass of untreated grape was measured on each of the dates of measurement in the same manner.

Lettuce (Great Lakes) = settings: 10 g/L aqueous solution at intervals of one week; browning index 0-5, five plants
Description: (§4) In general, calcium deficiency in lettuce and celery occurs from summer to fall. Heart rot symptom develops in lettuce, and change in color and blackening of new leaves develop in celery. In addition, tipburn may also occur in lettuce. A 10 g/L aqueous potassium hydrogen carbonate solution was applied at intervals of one week to lettuce and celery in which no symptom of calcium deficiency had yet developed, and whether or not the symptom became milder than that of an untreated group was observed. Five plants were subjected to each treatment, and the degree of the symptom of calcium deficiency was determined on the basis of the degree of browning of leaves at the harvest.
(§5) 0: no browning, 0.5: browning occurred only in very small portions on the edges of leaves, 1.0: browning occurred in portions on the edges of […], 2.0: browning occurred from edges of leaves to the inside, 3.0: the degree of browning was considerable, 5.0: the browning of leaves was remarkable. Degree of occurrence=(Index 5×the number of plants in which the corresponding blowing occurred+Index 3×the number of plants in which the corresponding blowing occurred+Index 2×the number of plants in which the corresponding blowing occurred+Index 1×the number of plants in which the corresponding blowing occurred+Index 0.5×the number of plants in which the corresponding blowing occurred)/5 plants

Celery = settings: 10 g/L aqueous solution at intervals of one week; browning index 0-5, five plants
Description: as §4, §5

Which “acidity compared with untreated” value ([1]; 5 g/L or 10 g/L) does the source give for `O=C([O-])O.[K+]` [Potassium hydrogen carbonate, potassium hydrogen carbonate] here?
The value was “kept equal to or slightly higher than that of the untreated group”.

And the “sugar content in fruit compared with untreated” value ([1]; 5 g/L)?
Its value is “greater increase in sugar content than the untreated fruit of grape”.

And the “sugar content in fruit compared with untreated” value ([1]; 10 g/L)?
Its value is “greater increase in sugar content than the untreated fruit of grape”.

And the Acidity ([2]; 20 g/L x3, at harvest)?
Its Acidity is 0.8.

What about the “Amino acid concentration” value ([2]; 20 g/L x3, at harvest) of the same compound?
Its value is 2800 µg/L.

What about the “State 10 days after harvest (drying state)” value ([2]; 20 g/L x3, kept in greenhouse (25° C.) for 10 days) of the same compound?
Its value is “dried faster than the untreated grape”.

And the “Sugar content (%)” value ([2]; 20 g/L, three times at intervals of one week, at harvest, 21 days after first application)?
Its value is 46%.

What about the “Transpiration ratio (treated/untreated)” value (fruits of cherry tomato; 10 g/L) of the same compound?
Its value is 1.93.

What about the “Mass (g) on date of test” value (fruits of cherry tomato; 10 g/L, Dec. 5) of the same compound?
The value was 193.30 g.

What about the “Estimated amount (g) of transpiration” value (fruits of cherry tomato; 10 g/L, Nov. 30 to Dec. 5) of the same compound?
Its value is 21.75 g.

And the “Estimated transpiration ratio (%)” value (fruits of cherry tomato; 10 g/L, Nov. 30 to Dec. 5)?
The value was 10.12%.

And the “Mass (g) before application” value (fruits of cherry tomato; Nov. 30)?
The value was 215.05 g.

What about the “Transpiration ratio (treated/untreated)” value (fruits of apple; 10 g/L) of the same compound?
Its value is 1.65.

What about the “Mass (g) on date of test” value (fruits of apple; 10 g/L, Dec. 5) of the same compound?
Its value is 263.69 g and 274.65 g.

And the “Estimated amount (g) of transpiration” value (fruits of apple; 10 g/L, Nov. 30 to Dec. 5)?
Its value is 9.15 g and 11.66 g.

What about the “Estimated transpiration ratio (%)” value (fruits of apple; 10 g/L, Nov. 30 to Dec. 5) of the same compound?
Its value is 3.35% and 3.72%.

What about the “Estimated transpiration ratio (average) (%)” value (fruits of apple; 10 g/L, average of two apples) of the same compound?
The value was 3.54%.

And the “Mass (g) before application” value (fruits of apple; Nov. 30)?
The value was 272.84 g and 286.31 g.

And the “increase of amount of transpiration in comparison with untreated” value ([3]; 7 days)?
Its value is “approximately 25%”.

And the “water lost per 100 g of grape” value ([3]; 7 days, decrease in mass assumed to be transpiration)?
Its value is “approximately 25 ml”.

What about the “mass of fruit per 100 g on date of application, 1 day later” value ([3]; Feb. 8) of the same compound?
The value was 96.2 g.

And the “mass of fruit per 100 g on date of application, 2 days later” value ([3]; Feb. 9)?
Its value is 92.1 g.

And the “mass of fruit per 100 g on date of application, 3 days later” value ([3]; Feb. 10)?
Its value is 88.6 g.

What about the “mass of fruit per 100 g on date of application, 7 days later” value ([3]; Feb. 14) of the same compound?
Its value is 74.9 g.

What about the “sugar content 7 days later (calculated)” value ([3]; assuming 15% on date of application) of the same compound?
The value was 20.0%.

What about the “Degree of occurrence of calcium deficiency” value (Lettuce (Great Lakes)) of the same compound?
The value was 0.2.

And the “Degree of occurrence of calcium deficiency” value (Celery)?
The value was 0.3.
